Assays:
[1] = biological target: glucosylceramide synthase (GCS) (Canis lupus familiaris, UniProt A0A8I3MXG6); assay: GCS Enzymatic Assay (MDCK lysates); type: biochemical, canine; details: MDCK cell lysate, C6-NBD-Ceramide, 37° C. for 1 hour, LC/MS; read-out: Assay 1 (Enzyme Assay; MDCK lysates) IC50
Experimental: Madin-Darby canine kidney (MDCK) cell lysate was prepared using M-PER Mammalian Protein Extraction Reagent (Thermal Scientific) in the presence of a protease inhibitor cocktail (Roche). Protein concentration was determined using BCA assay kit (Pierce). […] 0.1% DMSO was used as mock treatment or control. The reaction was terminated by adding 100 μL acetonitrile solution and subjected to LC/MS analysis.
The quantitative analysis of NBD-Ceramide and glucosylceramide was performed on a Shimadzu ultra-fast liquid chromatography (Shimadzu, Japan) coupled with API 4000 triple quadrupole mass spectrometer (Applied Biosystems, Concord, Ontario, Canada). Sample separation was conducted on a Waters Xbridge™ BEH130 C18, 100 mm×4.6 mm i.d, 3.5 μm (Milford, Mass., USA). The mobile phase consisted of water and acetonitrile supplemented with 0.1% formic acid (v/v). The flow rate was 1.0 mL/min. The initial mobile phase was 20% acetonitrile and was ramped in a linear fashion to 50% acetonitrile in 0.4 min. From 0.4 to 1.5 min, the gradient was ramped to 98% acetonitrile, and then was held at […] until 8.0 min. Acetonitrile was reset to 20% in 1.5 min, and maintained until 10.0 min. The total run time was 10.0 min. The MS/MS detection was performed in ESI positive mode. […] The cell lysate was diluted with equal volume of acetonitrile. Aliquots of 50 μL diluted samples were added to 1.5 mL tubes, and 100 μL of acetonitrile containing internal standard (100 ng/mL tolbutamide) were added for protein precipitation. The mixture were vortexed and then centrifuged at 13000 rpm for 10 min. 70 μL of supernatant were mixed with 140 μL of H2O and the final solution were injected for LC/MS/MS analysis and IC50's and/or percent inhibitions calculated.

K562 cells = assay: K562 Cell-Based Assay; details: Homo sapiens, NBD-Ceramide, LCMS, read-out: Assay 2 (Cellular Assay; K562 cells) IC50
Experimental: This assay was modified based on the study by Gupta et al. (J. Lipid Res. 2010, 51, 866). K562 cells were seeded into 12-well plates at 3×10^5 cells/well/mL in RPMI-1640 medium with 5% FBS and incubated at 37° C. for 24 h. One μL of a compound described herein at desired concentration (10 mM, 1 mM, 0.1 mM, 0.01 mM, 0.001 mM and 0.0001 mM in DMSO) or DMSO was added into the corresponding well and mixed. Cells were incubated at 37° C. for 4 h. Then 100 μL of RPMI-1640 medium containing 110 μM of NBD-Ceramide, 11% BSA, 5% FBS, and corresponding concentration of a compound described herein was added into each well and mixed. Cells were incubated for additional 0.5 h at 37° C., followed by washing the cells with ice-cold PBS (pH 7.4) twice with centrifugation and resuspended with 50 μL cold PBS+1% Triton X-100. The cell lysate was sonicated for 15 min before adding equal volume of methanol for LCMS analysis. A small aliquot of cell lysate was used to determine protein concentration by BCA assay kit. The HPLC equipment and methods used in Assay 1 were used in this assay as well and IC50's were calculated.

Sequence of glucosylceramide synthase (GCS) (A0A8I3MXG6 1-394): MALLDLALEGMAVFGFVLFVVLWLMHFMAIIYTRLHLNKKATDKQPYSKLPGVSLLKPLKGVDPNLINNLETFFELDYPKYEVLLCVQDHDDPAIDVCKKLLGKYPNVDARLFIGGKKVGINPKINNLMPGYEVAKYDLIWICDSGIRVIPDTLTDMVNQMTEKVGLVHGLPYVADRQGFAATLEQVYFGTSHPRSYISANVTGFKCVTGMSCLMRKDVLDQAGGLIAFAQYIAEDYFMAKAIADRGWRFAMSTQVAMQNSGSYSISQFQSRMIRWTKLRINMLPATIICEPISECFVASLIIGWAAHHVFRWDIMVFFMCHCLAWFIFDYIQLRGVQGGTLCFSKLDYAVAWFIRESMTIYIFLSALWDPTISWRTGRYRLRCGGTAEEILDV

Row | Structure (SMILES) | IC50 [1] | IC50 (K562 cells)
1 | O=C(N[C@H](CN1CCC1)[C@H](O)c1ccc(OC2CC2)cc1)C1=NOCc2cc(-c3ccc(Cl)s3)ccc21 [Example 11, N-((1R,2R)-3-(azetidin-1-yl)-1-(4-cyclopropoxyphenyl)-1-hydroxypropan-2-yl)-7-(5-chlorothiophen-2-yl)-1H-benzo[d][1,2]oxazine-4-carboxamide] | 10 to 100 nM | ≤ 10 nM
2 | O=C(N[C@H](CN1CCCC1)[C@H](O)c1ccc(OC2CC2)c(F)c1)C1=NOCc2c1sc1cc(Cl)ccc21 [Example 12, 7-chloro-N-((1R,2R)-1-(4-cyclopropoxy-3-fluorophenyl)-1-hydroxy-3-(pyrrolidin-1-yl)propan-2-yl)-1H-benzo[4,5]thieno[2,3-d][1,2]oxazine-4-carboxamide] | 10 to 100 nM | 10 to 100 nM
3 | CN(C(=O)C1=NOCc2cc(-c3ccc(Cl)s3)ccc21)[C@H](CN1CCCC1)[C@H](O)c1ccc(OC2CC2)c(F)c1 [Example 18, 7-(5-chlorothiophen-2-yl)-N-((1R,2R)-1-(4-cyclopropoxy-3-fluorophenyl)-1-hydroxy-3-(pyrrolidin-1-yl)propan-2-yl)-N-methyl-1H-benzo[d][1,2]oxazine-4-carboxamide] | 10 to 100 nM | ≤ 10 nM
4 | CN(C(=O)C1=NOCc2cc(-c3ccc(F)cc3)ccc21)[C@H](CN1CCCC1)[C@H](O)c1ccc(OC2CC2)c(Cl)c1 [Example 19, N-((1R,2R)-1-(3-chloro-4-cyclopropoxyphenyl)-1-hydroxy-3-(pyrrolidin-1-yl)propan-2-yl)-7-(4-fluorophenyl)-N-methyl-1H-benzo[d][1,2]oxazine-4-carboxamide] | 10 to 100 nM | ≤ 10 nM
5 | CN(C(=O)C1=NOCc2cc(-c3ccc(F)cc3)ccc21)[C@H](CN1CCC1)[C@H](O)c1ccc(OC2CC2)c(Cl)c1 [Example 21, N-((1R,2R)-3-(azetidin-1-yl)-1-(3-chloro-4-cyclopropoxyphenyl)-1-hydroxypropan-2-yl)-7-(4-fluorophenyl)-N-methyl-1H-benzo[d][1,2]oxazine-4-carboxamide] | 10 to 100 nM | ≤ 10 nM
6 | CC1ON=C(C(=O)N[C@H](CN2CCCC2)[C@H](O)c2ccc(OC3CC3)c(Cl)c2)c2ccc(-c3ccc(F)cc3)cc21 (stereo partly drawn) [Example 24, N-((1R,2R)-1-(3-chloro-4-cyclopropoxyphenyl)-1-hydroxy-3-(pyrrolidin-1-yl)propan-2-yl)-7-(4-fluorophenyl)-1-methyl-1H-benzo[d][1,2]oxazine-4-carboxamide] | 10 to 100 nM | 10 to 100 nM
7 | O=C(N[C@H](CN1CCC1)[C@H](O)c1ccc(OC2CC2)cc1)C1=NOCc2c1ccc1cc(F)ccc21 [Example 31, N-((1R,2R)-3-(azetidin-1-yl)-1-(4-cyclopropoxyphenyl)-1-hydroxypropan-2-yl)-8-fluoro-1H-naphtho[2,1-d][1,2]oxazine-4-carboxamide] | 10 to 100 nM | 10 to 100 nM
8 | O=C(N[C@H](CN1CCCC1)[C@H](O)c1ccc(OC2CC2)c(Cl)c1)C1=NOCc2c1ccc1sc(Cl)cc21 [Example 32, 8-chloro-N-((1R,2R)-1-(3-chloro-4-cyclopropoxyphenyl)-1-hydroxy-3-(pyrrolidin-1-yl)propan-2-yl)-1H-thieno[3′,2′:3,4]benzo[1,2-d][1,2]oxazine-4-carboxamide] | < 10 nM | ≤ 10 nM
9 | Cn1ncc2c3c(ccc21)C(C(=O)N[C@H](CN1CCCC1)[C@H](O)c1ccc(OC2CC2)c(Cl)c1)=NOC3 [Example 33, N-((1R,2R)-1-(3-chloro-4-cyclopropoxyphenyl)-1-hydroxy-3-(pyrrolidin-1-yl)propan-2-yl)-7-methyl-1,7-dihydro-[1,2]oxazino[5,4-e]indazole-4-carboxamide] | < 10 nM | 10 to 100 nM
10 | Cn1ncc2ccc3c(c21)CON=C3C(=O)N[C@H](CN1CCCC1)[C@H](O)c1ccc(OC2CC2)c(Cl)c1 [Example 34, N-((1R,2R)-1-(3-chloro-4-cyclopropoxyphenyl)-1-hydroxy-3-(pyrrolidin-1-yl)propan-2-yl)-1-methyl-1,9-dihydro-[1,2]oxazino[4,5-g]indazole-6-carboxamide] | < 10 nM | 10 to 100 nM

More lines, now with the values ahead:

Row | IC50 [1] | IC50 (K562 cells) | Structure (SMILES)
11 | < 10 nM | ≤ 10 nM | O=C(N[C@H](CN1CCCC1)[C@H](O)c1ccc(OC2CC2)cc1)C1=NOCc2cc(-c3ccc(Cl)s3)ccc21 [Example 14, 7-(5-chlorothiophen-2-yl)-N-((1R,2R)-1-(4-cyclopropoxyphenyl)-1-hydroxy-3-(pyrrolidin-1-yl)propan-2-yl)-1H-benzo[d][1,2]oxazine-4-carboxamide]
12 | < 10 nM | ≤ 10 nM | CN(C(=O)C1=NOCc2cc(-c3ccc(F)cc3)ccc21)[C@H](CN1CCCC1)[C@H](O)c1ccc(OC2CC2)c(F)c1 [Example 17, N-((1R,2R)-1-(4-cyclopropoxy-3-fluorophenyl)-1-hydroxy-3-(pyrrolidin-1-yl)propan-2-yl)-7-(4-fluorophenyl)-N-methyl-1H-benzo[d][1,2]oxazine-4-carboxamide]
13 | < 10 nM | ≤ 10 nM | O=C(N[C@H](CN1CCCC1)[C@H](O)c1ccc(OC2CC2)c(Cl)c1)C1=NOCc2cc3ccccc3cc21 [Example 20, N-((1R,2R)-1-(3-chloro-4-cyclopropoxyphenyl)-1-hydroxy-3-(pyrrolidin-1-yl)propan-2-yl)-1H-naphtho[2,3-d][1,2]oxazine-4-carboxamide]
14 | < 10 nM | ≤ 10 nM | O=C(N[C@H](CN1CCCC1)[C@H](O)c1ccc(OC2CC2)c(Cl)c1)C1=NOCc2c1ccc1ccccc21 [Example 22, N-((1R,2R)-1-(3-chloro-4-cyclopropoxyphenyl)-1-hydroxy-3-(pyrrolidin-1-yl)propan-2-yl)-1H-naphtho[2,1-d][1,2]oxazine-4-carboxamide]
15 | < 10 nM | ≤ 10 nM | O=C(N[C@H](CN1CCCC1)[C@H](O)c1ccc(OC2CC2)cc1)C1=NOCc2c1ccc1ccccc21 [Example 25, N-((1R,2R)-1-(4-cyclopropoxyphenyl)-1-hydroxy-3-(pyrrolidin-1-yl)propan-2-yl)-1H-naphtho[2,1-d][1,2]oxazine-4-carboxamide]
16 | < 10 nM | ≤ 10 nM | O=C(N[C@H](CN1CCC1)[C@H](O)c1ccc(OC2CC2)c(Cl)c1)C1=NOCc2c1ccc1ccccc21 [Example 26, N-((1R,2R)-3-(azetidin-1-yl)-1-(3-chloro-4-cyclopropoxyphenyl)-1-hydroxypropan-2-yl)-1H-naphtho[2,1-d][1,2]oxazine-4-carboxamide]
17 | < 10 nM | 10 to 100 nM | O=C(N[C@H](CN1CCCC1)[C@H](O)c1ccc(OC2CC2)c(Cl)c1)C1=NOCc2c1ccc1cccnc21 [Example 27, N-((1R,2R)-1-(3-chloro-4-cyclopropoxyphenyl)-1-hydroxy-3-(pyrrolidin-1-yl)propan-2-yl)-10H-[1,2]oxazino[4,5-h]quinoline-7-carboxamide]
18 | < 10 nM | ≤ 10 nM | O=C(N[C@H](CN1CCCC1)[C@H](O)c1ccc(OC2CC2)c(Cl)c1)C1=NOCc2c1ccc1cc(F)ccc21 [Example 28, N-((1R,2R)-1-(3-chloro-4-cyclopropoxyphenyl)-1-hydroxy-3-(pyrrolidin-1-yl)propan-2-yl)-8-fluoro-1H-naphtho[2,1-d][1,2]oxazine-4-carboxamide]
19 | < 10 nM | ≤ 10 nM | O=C(N[C@H](CN1CCCC1)[C@H](O)c1ccc(OC2CC2)cc1)C1=NOCc2c1ccc1cc(F)ccc21 [Example 29, N-((1R,2R)-1-(4-cyclopropoxyphenyl)-1-hydroxy-3-(pyrrolidin-1-yl)propan-2-yl)-8-fluoro-1H-naphtho[2,1-d][1,2]oxazine-4-carboxamide]
20 | < 10 nM | 10 to 100 nM | O=C(N[C@H](CN1CCC1)[C@H](O)c1ccc(OC2CC2)c(Cl)c1)C1=NOCc2c1ccc1cc(F)ccc21 [Example 30, N-((1R,2R)-3-(azetidin-1-yl)-1-(3-chloro-4-cyclopropoxyphenyl)-1-hydroxypropan-2-yl)-8-fluoro-1H-naphtho[2,1-d][1,2]oxazine-4-carboxamide]

— US10227312B2, “Glucosylceramide synthase inhibitors for the treatment of diseases” (BIOMARIN PHARMACEUTICAL INC., priority 2015, dated 2019)
